According to article PMC4574351, “Tubulin cofactors and Arl2 are cage-like chaperones that regulate the soluble αβ-tubulin pool for microtubule dynamics” (eLife, 2015):
Where two headings read alike, the source gives them in different places.

Columns and labels:
Experiment in all cases: malachite green phosphate release, Michaelis-Menten fit
Assay type in all cases: biochemical
TBC-DEG:TBCC = target: T1, TBC-DEG:TBCC (Saccharomyces cerevisiae, UniProt P39110); conditions: 1 μM TBC-DEG, 1 μM TBCC; buffer and temperature same; read-out: Km (GTP)
T1 construct: gene CIN4; TBC-DEG mixed with equimolar full-length TBCC (GAP), all recombinant from E. coli; with Protein CIN1; Protein PAC2; Tubulin-folding cofactor C
Text: malachite green phosphate release, Michaelis-Menten fit on TBC-DEG:TBCC

TBC-DEG (TBCD-TBCE-Arl2) = target: T2, TBC-DEG (TBCD-TBCE-Arl2) (Saccharomyces cerevisiae, UniProt P39110); conditions: 1 μM TBC-DEG alone; 0-800 μM GTP; 50 mM HEPES, 100 mM KCl; 30 °C, 90 min
T2 construct: gene CIN4; full-length subunits co-expressed in E. coli (polycistronic), 6xHis N-terminal tag; 1:1:1 heterotrimer, ~205 kDa; with Protein CIN1; Protein PAC2
T2 sequence (P39110 1-191): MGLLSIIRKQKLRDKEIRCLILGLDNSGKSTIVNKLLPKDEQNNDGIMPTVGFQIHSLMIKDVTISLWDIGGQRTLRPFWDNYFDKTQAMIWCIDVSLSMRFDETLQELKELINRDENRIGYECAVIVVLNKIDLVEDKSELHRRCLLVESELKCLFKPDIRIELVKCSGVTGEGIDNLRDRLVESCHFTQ
T2 sequence (P40987 1-1014 partner): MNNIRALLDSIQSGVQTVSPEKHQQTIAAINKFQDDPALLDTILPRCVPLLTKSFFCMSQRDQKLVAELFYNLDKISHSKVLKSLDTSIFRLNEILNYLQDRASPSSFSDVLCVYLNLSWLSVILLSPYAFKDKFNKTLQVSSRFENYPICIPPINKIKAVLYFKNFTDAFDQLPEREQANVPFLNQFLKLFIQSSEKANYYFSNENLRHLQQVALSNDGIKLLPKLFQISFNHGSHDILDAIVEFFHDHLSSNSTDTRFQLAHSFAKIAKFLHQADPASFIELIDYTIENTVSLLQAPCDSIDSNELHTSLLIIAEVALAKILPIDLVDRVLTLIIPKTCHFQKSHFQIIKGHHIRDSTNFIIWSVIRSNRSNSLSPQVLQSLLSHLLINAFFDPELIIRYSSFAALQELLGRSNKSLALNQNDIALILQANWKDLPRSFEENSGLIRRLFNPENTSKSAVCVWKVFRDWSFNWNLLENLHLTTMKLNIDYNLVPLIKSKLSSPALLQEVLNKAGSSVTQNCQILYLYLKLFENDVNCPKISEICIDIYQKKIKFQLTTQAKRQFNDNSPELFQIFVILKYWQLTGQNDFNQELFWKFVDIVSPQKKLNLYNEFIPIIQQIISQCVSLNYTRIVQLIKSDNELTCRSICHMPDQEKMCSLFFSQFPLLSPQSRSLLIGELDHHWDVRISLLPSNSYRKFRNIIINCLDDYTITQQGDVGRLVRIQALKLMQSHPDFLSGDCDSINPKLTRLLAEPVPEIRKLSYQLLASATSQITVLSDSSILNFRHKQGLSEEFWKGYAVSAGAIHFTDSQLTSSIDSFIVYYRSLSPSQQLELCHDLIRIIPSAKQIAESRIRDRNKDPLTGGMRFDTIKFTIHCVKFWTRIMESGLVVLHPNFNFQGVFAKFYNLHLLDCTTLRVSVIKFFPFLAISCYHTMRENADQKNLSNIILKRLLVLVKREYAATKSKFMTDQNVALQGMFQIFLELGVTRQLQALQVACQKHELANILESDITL
T2 sequence (P39937 1-518 partner): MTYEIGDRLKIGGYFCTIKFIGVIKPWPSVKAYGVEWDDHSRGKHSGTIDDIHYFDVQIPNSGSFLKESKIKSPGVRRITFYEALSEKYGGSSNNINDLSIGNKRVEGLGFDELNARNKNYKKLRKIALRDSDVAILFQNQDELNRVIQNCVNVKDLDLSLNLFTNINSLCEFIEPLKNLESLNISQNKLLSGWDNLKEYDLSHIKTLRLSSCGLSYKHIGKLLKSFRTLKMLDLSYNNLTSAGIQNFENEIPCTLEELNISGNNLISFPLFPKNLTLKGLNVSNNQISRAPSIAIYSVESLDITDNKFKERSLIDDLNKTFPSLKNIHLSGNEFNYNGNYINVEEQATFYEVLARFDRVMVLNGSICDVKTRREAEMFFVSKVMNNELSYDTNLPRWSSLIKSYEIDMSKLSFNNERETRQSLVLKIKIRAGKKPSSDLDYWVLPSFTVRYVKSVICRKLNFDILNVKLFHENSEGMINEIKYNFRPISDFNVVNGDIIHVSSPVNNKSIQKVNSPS
Text: malachite green phosphate release, Michaelis-Menten fit on TBC-DEG (TBCD-TBCE-Arl2)

[1] = target: T3, TBC-DEG:αβ-tubulin:TBCC ternary complex (Saccharomyces cerevisiae, UniProt P39110, Q73L); conditions: 1 μM each TBC-DEG-Q73L, buffer and temperature same, text prints 387 μM, residual turnover ascribed to tubulin, read-out: Km (GTP)
T3 construct: gene CIN4; recombinant yeast TBC-DEG and full-length TBCC with equimolar double-cycled porcine brain tubulin dimer; tubulin may contribute to GTP turnover; with Protein CIN1; Protein PAC2; Tubulin-folding cofactor C; Tubulin alpha chain (Sus scrofa brain, isotype mixture); Tubulin beta chain (Sus scrofa brain, isotype mixture)
Text: (§1) malachite green phosphate release, Michaelis-Menten fit on TBC-DEG:αβ-tubulin:TBCC ternary complex

[2] = target: T4, TBC-DEG:αβ-tubulin:TBCC ternary complex (Saccharomyces cerevisiae, UniProt P39110); conditions: 1 μM each TBC-DEG, buffer and temperature same, read-out: Km (GTP)
T4 construct: gene CIN4; recombinant yeast TBC-DEG and full-length TBCC with equimolar double-cycled porcine brain tubulin dimer; tubulin may contribute to GTP turnover; with Protein CIN1; Protein PAC2; Tubulin-folding cofactor C; Tubulin alpha chain (Sus scrofa brain, isotype mixture); Tubulin beta chain (Sus scrofa brain, isotype mixture)
Text: as §1

TBC-DEG:αβ-tubulin = target: T5, TBC-DEG:αβ-tubulin (Saccharomyces cerevisiae, UniProt P39110); conditions: 1 μM TBC-DEG, 1 μM αβ-tubulin; buffer and temperature same; GTPase site may be Arl2 or tubulin; read-out: Km (GTP)
T5 construct: gene CIN4; recombinant yeast TBC-DEG with equimolar double-cycled porcine brain tubulin dimer; tubulin may contribute to GTP turnover; with Protein CIN1; Protein PAC2; Tubulin alpha chain (Sus scrofa brain, isotype mixture); Tubulin beta chain (Sus scrofa brain, isotype mixture)
Text: malachite green phosphate release, Michaelis-Menten fit on TBC-DEG:αβ-tubulin

[3] = target: T6, TBC-DEG:αβ-tubulin:TBCC-Cterm (TBCC-C) (Saccharomyces cerevisiae, UniProt P39110); conditions: 1 μM each TBC-DEG, buffer and temperature same, read-out: Km (GTP)
T6 construct: gene CIN4; as ternary complex but TBCC beta-helix domain only (residues 100-267, spectrin domain removed); with Protein CIN1; Protein PAC2; Tubulin-folding cofactor C; Tubulin alpha chain (Sus scrofa brain, isotype mixture); Tubulin beta chain (Sus scrofa brain, isotype mixture)
Text: malachite green phosphate release, Michaelis-Menten fit on TBC-DEG:αβ-tubulin:TBCC-Cterm (TBCC-C)

T5 sequence (P02550 whole entry partner, one chain of several): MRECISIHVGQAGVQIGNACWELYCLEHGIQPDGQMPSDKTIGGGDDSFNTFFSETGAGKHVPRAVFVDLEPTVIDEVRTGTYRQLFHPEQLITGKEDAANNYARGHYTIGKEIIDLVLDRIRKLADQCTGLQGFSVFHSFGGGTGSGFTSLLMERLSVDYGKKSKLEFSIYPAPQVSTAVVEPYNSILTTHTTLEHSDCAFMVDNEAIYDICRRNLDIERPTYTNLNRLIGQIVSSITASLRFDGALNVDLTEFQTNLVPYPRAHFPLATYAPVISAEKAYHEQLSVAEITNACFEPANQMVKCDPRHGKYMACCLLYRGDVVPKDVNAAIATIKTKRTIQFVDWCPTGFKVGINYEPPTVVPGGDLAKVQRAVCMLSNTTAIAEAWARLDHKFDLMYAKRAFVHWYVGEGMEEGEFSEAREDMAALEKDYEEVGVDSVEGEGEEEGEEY
T5 sequence (P02554 whole entry partner, one chain of several): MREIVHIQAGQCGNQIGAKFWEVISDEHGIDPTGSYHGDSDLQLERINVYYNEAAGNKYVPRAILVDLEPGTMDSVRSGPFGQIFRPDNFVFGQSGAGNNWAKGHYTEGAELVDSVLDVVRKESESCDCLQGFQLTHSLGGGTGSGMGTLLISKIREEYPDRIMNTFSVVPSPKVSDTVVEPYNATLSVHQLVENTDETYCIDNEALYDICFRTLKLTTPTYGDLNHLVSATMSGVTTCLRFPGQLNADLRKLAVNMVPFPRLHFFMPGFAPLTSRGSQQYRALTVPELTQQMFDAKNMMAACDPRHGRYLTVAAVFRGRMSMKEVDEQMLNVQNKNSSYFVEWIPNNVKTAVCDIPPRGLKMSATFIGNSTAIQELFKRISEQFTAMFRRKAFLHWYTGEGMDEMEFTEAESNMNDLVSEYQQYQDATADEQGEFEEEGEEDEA
T6 sequence (P46670 100-267 partner, one chain of several): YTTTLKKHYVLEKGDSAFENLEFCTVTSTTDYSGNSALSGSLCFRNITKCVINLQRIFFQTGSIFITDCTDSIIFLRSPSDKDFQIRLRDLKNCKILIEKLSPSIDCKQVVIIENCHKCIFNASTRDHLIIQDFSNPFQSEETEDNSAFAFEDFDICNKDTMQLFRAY
T6 sequence (P02550 whole entry partner, one chain of several, the tested form may be a part): as the sequence (P02550 whole entry partner, one chain of several) above
T6 sequence (P02554 whole entry partner, one chain of several, the tested form may be a part): as the sequence (P02554 whole entry partner, one chain of several) above
T1 sequence (P46670 whole entry partner, one chain of several): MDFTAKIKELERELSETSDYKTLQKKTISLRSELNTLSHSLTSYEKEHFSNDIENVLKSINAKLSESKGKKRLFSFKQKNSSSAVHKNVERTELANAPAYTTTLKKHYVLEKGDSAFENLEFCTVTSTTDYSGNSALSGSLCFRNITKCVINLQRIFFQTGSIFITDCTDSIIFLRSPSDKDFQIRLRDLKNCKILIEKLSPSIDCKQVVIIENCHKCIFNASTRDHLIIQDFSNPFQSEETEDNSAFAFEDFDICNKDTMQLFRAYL
T3 sequence (P39110 whole entry Q73L, one chain of several): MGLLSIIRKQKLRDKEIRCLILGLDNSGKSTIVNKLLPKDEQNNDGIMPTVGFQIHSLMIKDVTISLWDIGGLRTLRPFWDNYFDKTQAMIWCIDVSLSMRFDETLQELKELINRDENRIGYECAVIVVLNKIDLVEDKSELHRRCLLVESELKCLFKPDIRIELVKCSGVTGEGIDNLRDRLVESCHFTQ
T3 sequence (P46670 whole entry partner, one chain of several): as the sequence (P46670 whole entry partner, one chain of several) above
T3 sequence (P02550 whole entry partner, one chain of several): as the sequence (P02550 whole entry partner, one chain of several) above
T3 sequence (P02554 whole entry partner, one chain of several): as the sequence (P02554 whole entry partner, one chain of several) above

## Nc1nc2c(ncn2[C@@H]2O[C@H](COP(=O)(O)OP(=O)(O)OP(=O)(O)O)[C@@H](O)[C@H]2O)c(=O)[nH]1 [GTP]
TBC-DEG:TBCC
  Km: 94 ± 10 µM
TBC-DEG (TBCD-TBCE-Arl2)
  Km: 400 ± 30 µM
[1]
  Km: 371 ± 20 µM
[2]; TBCC-R186A, arginine finger mutant
  Km: 40 ± 10 µM
[2]; TBCC-Δ233-245, αβ-tubulin
  Km: 35 ± 8 µM
[2]; Arl2 with minor tubulin contribution
  Km: 99 ± 10 µM
TBC-DEG:αβ-tubulin
  Km: 69 ± 12 µM
[3]
  Km: 56 ± 7 µM
